Entries after “also recorded” stand apart in the source; their conditions may differ. Like-named read-outs stand apart in the source and are kept apart here. One block for each molecule: values may come before it.
Assays:
[1] = system: human nasal epithelial cells (RPMI2650, ATCC CCL-30); test: Starvation (serum deprivation) stress, neutral red uptake viability; format: cell-based; conditions: for viability at 10000 µg/mL: Homo sapiens, 10 mg/mL, read-out: Percentage of viability
Procedure: (§1) Induced stresses were performed as follow: Starvation
(§2) The neutral red uptake assay was used for the determination of cell viability. This assay is based on the ability of viable cells to incorporate and bind the supravital dye neutral red in its lysosomes. So, only the viable cells are dyed. At different times after the stress assay (T0), the plates were incubated with neutral red solution for 3.5 hours. The cells are subsequently washed, the dye is extracted in each well and the absorbance is read using a spectrophotometer.
(§3) For sampling, 1 mL of DMEM (without phenol red indicator) with neutral red (OD=0.110) was added to the cells for 3.5 hours (37° C., 10% CO2). After incubation, the medium was removed, two washes of PBS were realized and 1 mL of extraction solution (absolute ethanol 49%, ultrapure water 49%, glacial acetic acid 2%) was added. Plates were placed 15 minutes on rotary shaker in the dark before reading OD at 540 nm.
(§4) The OD540 nm average value of positive control was considered as 100% of viability.
(§5) The percentage of viability for each assay was calculated as follow: % viability assay=(OD540 nm of tested solution−blank)*100/(OD540 nm of positive control−blank).

[2] = system: human neonatal skin fibroblasts (CCD-27SK, ATCC CRL-1475); test: as above; format: cell-based; conditions: for viability at 5000 µg/mL: Homo sapiens, CCD-27Sk, read-out: Percentage of viability; for preservative/protective effect on skin fibroblasts (in words): starvation medium
Procedure: as §1, §2, §3, §4, §5

[3] = system: human neonatal skin fibroblasts; test: Oxidative stress (H2O2), neutral red uptake viability; format: cell-based; conditions: for viability at 5000 µg/mL / viability at 10000 µg/mL / viability at 15000 µg/mL: Homo sapiens, Skin fibroblast, read-out: Percentage of viability following oxidative stress; for viability at 5000 µg/mL: 5 mg/mL; for viability at 10000 µg/mL: 10 mg/mL; for viability at 15000 µg/mL: 15 mg/mL
Procedure: as §1
Then oxidative stress was performed as follow: 0.2 ml of solution at 500 μM of H2O2 was added in wells except for negative control where 0.2 ml of culture medium were added.
as §2, §3, §5

[4] = system: human neonatal skin fibroblasts; test: UV stress (11 J/cm^2), neutral red uptake viability; format: cell-based; conditions: for viability at 5000 µg/mL / viability at 10000 µg/mL / viability at 15000 µg/mL: Homo sapiens, Skin fibroblast, light or radiation study, read-out: Percentage of viability following UV stress (11 J/cm^2); for viability at 5000 µg/mL: 5 mg/mL; for viability at 10000 µg/mL: 10 mg/mL; for viability at 15000 µg/mL: 15 mg/mL
Procedure: as §2, §3, §5

[5] = Comparative stability towards basic conditions (NaOD in D2O), 1H NMR; format: physicochemical
Procedure: In a first set of experiments (experiments 1 to 7 in table 9), X (10 mg, 1.72 10^−2 mmol) was reacted with 2 to 8 equivalents of NaOD in a total volume of 355 μL of deuterium oxide ([X]=4.8 10^−2 mmol·mL^−1) during 2 h 30 before being acidified with 1M DCl in D2O. To be sure that all compounds in solution are in their acidic form, the equivalents of DCl are adjusted to 3 more equivalents of DCl than the amount required to neutralize the solution (nDCl=nNaOD+3). The volume was adjusted to 544 μL with deuterium oxide.
In a second set of experiments (experiments 8 to 14 in table 9), 17 (10 mg, 1.66 10^−2 mmol) was reacted with 2 to 8 equivalents of NaOD in a total volume of 343 μL of deuterium oxide ([17]=4.8 10^−2 mmol·mL^−1) during 2 h 30 before being acidified with 1M DCl in D2O. To be sure that all compounds in solution are in their acidic form, the equivalents of DCl are adjusted to 3 more equivalents of DCl than the amount required to neutralize the solution (nDCl=nNaOD+3). The volume was adjusted to 526 μL with deuterium oxide.
^1H NMR analyses were performed on each experiment. It is why experiments were realized in deuterium oxide and using 1M NaOD in D2O as base and 1M DCl in D2O as acid.
^1H NMR allows indeed the determination of the amount of compound X1 formed, by comparison between the integration corresponding to the methylene group of the lysine side chain connected to the nitrogen atom in X (CH2NGP) (3.3 ppm) and the integrationof the same methylene group in X1 (CH2Lys hydrolyzed) (3.0 ppm).
To confirm the structure of compounds X1 and X2, resulting from hydrolysis of X, the following experiment was realized, in which X (10 mg, 1.72 10^−2 mmol) was reacted with 8 equivalents of NaOD in a total volume of 355 μL of deuterium oxide ([X]=4.8 10^−2 mmol·mL^−1) during 3 days before being acidified with 1M DCl in D2O. In these conditions, almost the totality of compound X is hydrolyzed, the percentage of hydrolysis of compound X being 85% as determined by ^1H NMR as evidence in table 11.

[6] = D 1 after serum deprivation, 5 mg/mL (Table 2)
[7] = D 7 after serum deprivation, 5 mg/mL (Table 2)
[8] = D 4 after serum deprivation, 5 mg/mL (Table 2)
[9] = D4 after serum deprivation, 10 mg/mL, positive control with 5% FBS (Table 3)
[10] = D8 after serum deprivation, 10 mg/mL, positive control with 5% FBS (Table 3)

SMILES: C[C@H](NC(=O)[C@H](C)NC(=O)[C@@H](N)CCCCNCC(F)(F)C1(O)O[C@H](CO)[C@H](O)[C@H](O)[C@H]1O)C(=O)O (stereo partly shown) [Compound 19]
viability at 10000 µg/mL ([1]; RPMI-2650, D4 after serum deprivation): 52 ± 4.64% | viability at 10000 µg/mL ([1]; RPMI-2650, D6 after serum deprivation): 26% | preservative/protective effect on human nasal epithelial cells (in words) ([1]; starvation medium, 10 mg/ml): preservative/protective effect | Percentage of viability [2, 6]: 73% | Percentage of viability [2, 7]: 50% | viability at 5000 µg/mL [2, 6]: 73 to 87% | viability at 5000 µg/mL [2, 8]: 57% | viability at 5000 µg/mL [2, 7]: 45 to 50% | preservative/protective effect on skin fibroblasts (in words) [2]: significant preservative/protective effect | preservative/protective effect against oxidative stress (in words) ([3]; 5 to 15 mg/ml): preservative/protective effect against oxidative stress which is dose dependant | viability at 5000 µg/mL ([3]; 1 h after 100 μM H2O2): 89 ± 2.7% | viability at 10000 µg/mL ([3]; 1 h after 100 μM H2O2): 99 ± 0.5% | viability at 15000 µg/mL ([3]; 1 h after 100 μM H2O2): 110 ± 2% | viability at 5000 µg/mL ([3]; 24 h after 100 μM H2O2): 109 ± 2.2% | viability at 10000 µg/mL ([3]; 24 h after 100 μM H2O2): 120 ± 2.1% | viability at 15000 µg/mL ([3]; 24 h after 100 μM H2O2): 127 ± 5.8% | growth/regenerative effect on stressed cells (in words) ([3]; viability increased in time after H2O2): growth/regenerative effect | preservative/protective effect against UV stress (in words) [4]: preservative/protective effect against UV stress | viability at 5000 µg/mL ([4]; 1 h after irradiation): 53% | viability at 10000 µg/mL ([4]; 1 h after irradiation): 70% | viability at 15000 µg/mL ([4]; 1 h after irradiation): 67% | viability at 5000 µg/mL ([4]; 3 h after irradiation): 71% | viability at 10000 µg/mL ([4]; 3 h after irradiation): 80% | viability at 15000 µg/mL ([4]; 3 h after irradiation): 80% | viability at 5000 µg/mL ([4]; 24 h after irradiation): 89% | viability at 10000 µg/mL ([4]; 24 h after irradiation): 116% | viability at 15000 µg/mL ([4]; 24 h after irradiation): 112% | growth or regenerative effect on stressed cells (in words) ([4]; viability increased in time after UV): growth or regenerative effect

SMILES: CC(=O)O.CC(=O)O.C[C@H](NC(=O)[C@H](C)NC(=O)[C@@H](N)CCCCNCC(F)(F)C1(O)O[C@H](CO)[C@H](O)[C@H](O)[C@H]1O)C(=O)O (stereo partly shown) [Compound 20]
Percentage of viability [2, 6]: 87% | Percentage of viability [2, 8]: 63% | Percentage of viability [2, 7]: 50% | preservative/protective effect on skin fibroblasts (in words) [2]: significant preservative/protective effect

SMILES: C[C@H](NC(=O)[C@@H](N)CCCCNCC(F)(F)C1(O)O[C@H](CO)[C@H](O)[C@H](O)[C@H]1O)C(=O)O.Cl.Cl (stereo partly shown) [Compound 22]
Percentage of viability ([2]; D4 after serum deprivation, 10 mg/mL (Table 4)): 93% | preservative/protective effect on skin fibroblasts (in words) [2]: significant preservative/protective effect

SMILES: Cl.Cl.N[C@@H](CCCCNCC(F)(F)C1(O)O[C@H](CO)[C@H](O)[C@H](O)[C@H]1O)C(=O)NCC(=O)NCC(=O)O (stereo partly shown) [Compound 24]
Percentage of viability [2, 9]: 99 ± 3.35% | Percentage of viability [2, 10]: 95 ± 1.60% | preservative/protective effect on skin fibroblasts (in words) [2]: significant preservative/protective effect

SMILES: C[C@H](NC(=O)[C@@H](N)CCCCNCC(F)(F)C1(O)O[C@H](CO)[C@H](O)[C@H](O)[C@H]1O)C(=O)NCC(=O)O.Cl.Cl (stereo partly shown) [Compound 26]
Percentage of viability [2, 9]: 89 ± 1.21% | Percentage of viability [2, 10]: 64 ± 2.78% | preservative/protective effect on skin fibroblasts (in words) [2]: significant preservative/protective effect

SMILES: C[C@H](NC(=O)CNC(=O)[C@@H](N)CCCCNCC(F)(F)C1(O)O[C@H](CO)[C@H](O)[C@H](O)[C@H]1O)C(=O)O.Cl.Cl (stereo partly shown) [Compound 28]
Percentage of viability [2, 9]: 109 ± 2.05% | Percentage of viability [2, 10]: 108 ± 3.40% | preservative/protective effect on skin fibroblasts (in words) [2]: significant preservative/protective effect

SMILES: C[C@H](NC(=O)[C@H](C)NC(=O)[C@@H](N)CCCNCC(F)(F)C1(O)O[C@H](CO)[C@H](O)[C@H](O)[C@H]1O)C(=O)O.Cl.Cl (stereo partly shown) [Compound 30]
Percentage of viability [2, 9]: 92 ± 1.2% | Percentage of viability [2, 10]: 74 ± 0.5% | preservative/protective effect on skin fibroblasts (in words) [2]: significant preservative/protective effect

SMILES: C[C@H](NC(=O)[C@@H](N)CCCCNCC(F)(F)C1(O)O[C@H](CO)[C@H](O)[C@H](O)[C@H]1O)C(=O)N1CCC[C@H]1C(=O)O.Cl.Cl (stereo partly shown) [Compound 34]
Percentage of viability [2, 9]: 103 ± 1% | Percentage of viability [2, 10]: 103 ± 2% | preservative/protective effect on skin fibroblasts (in words) [2]: significant preservative/protective effect

SMILES: C[C@H](N)C(=O)N[C@@H](CCCCNCC(F)(F)C1(O)O[C@H](CO)[C@H](O)[C@H](O)[C@H]1O)C(=O)N[C@@H](C)C(=O)O.Cl.Cl (stereo partly shown) [Compound 38]
Percentage of viability [2, 9]: 101 ± 3% | Percentage of viability [2, 10]: 88 ± 3% | preservative/protective effect on skin fibroblasts (in words) [2]: significant preservative/protective effect

SMILES: Cl.Cl.N[C@@H](CCCCNCC(F)(F)C1(O)O[C@H](CO)[C@H](O)[C@H](O)[C@H]1O)C(=O)O (stereo partly shown) [Compound 44]
Percentage of viability [2, 9]: 111 ± 2.9% | Percentage of viability [2, 10]: 102 ± 1.3% | preservative/protective effect on skin fibroblasts (in words) [2]: significant preservative/protective effect

% hydrolyzed ([5]; 2 eq NaOD, 2 h 30, D2O): 2.0% | % hydrolyzed ([5]; 3 eq NaOD, 2 h 30, D2O): 4.8% | % hydrolyzed ([5]; 4 eq NaOD, 2 h 30, D2O): 13.0% | % hydrolyzed ([5]; 5 eq NaOD, 2 h 30, D2O): 16.0% | % hydrolyzed ([5]; 6 eq NaOD, 2 h 30, D2O): 19.0% | % hydrolyzed ([5]; 7 eq NaOD, 2 h 30, D2O): 20.6% | % hydrolyzed ([5]; 8 eq NaOD, 2 h 30, D2O): 22.2% | % hydrolyzed ([5]; 8 eq NaOD, 2 h 30, D2O, listed as compound X): 22% | % hydrolyzed ([5]; Control, 0 eq NaOD): 0.5% | % hydrolysis ([5]; Experiment A, 0 eq NaOD (Table 11)): 0.5% | % hydrolysis ([5]; Experiment B, 8 eq NaOD, 3 days, D2O): 85%
SMILES: C[C@H](NC(=O)[C@H](C)NC(=O)[C@@H](N)CCCCNC(=O)C(F)(F)[C@]1(O)O[C@H](CO)[C@H](O)[C@H](O)[C@H]1O)C(=O)O [Compound X]
stability towards basic conditions (in words) ([5]; 2 to 8 eq NaOD, 2 h 30, 1H NMR): degradation; also recorded: sensitive to basic medium

— patent publication US10100088B2, “Glycopeptide derivatives for the preservation and protection of biological materials and microorganisms” (TFCHEM, priority 2014, dated 2018)
